This assay has as its target SARS2 coronavirus 3CL protease (Severe acute respiratory syndrome coronavirus 2, UniProt P0DTD1). Briefly: SARS2 Coronavirus 3CL Protease Assay (FRET). Format: biochemical. The settings on record: 5 nM protease pre-incubated with compound 30 minutes; 15 uM peptide substrate; 4 h room temperature; read-out: FRET Potency (nM); IC50 values in the SARS2 3CLPro FRET assay. The method, then:
The enzymatic activity of SARS2 coronavirus 3CL protease was determined in a FRET (fluorescence resonance energy transfer)-based assay measuring the cleavage of a peptide substrate by recombinantly expressed and purified enzyme. Cleavage of the peptide SEQ ID NO: 1 (CPC Scientific) by SARS2 3CL protease was measured in reaction buffer (50 mM Hepes pH 7.5, 0.01% Triton X-100, 0.01% BSA, 2 mM DTT). […] Room temperature reactions (4 h) were quenched by addition of a high dose of inhibitor and read on an appropriate plate reader (excitation wavelength=495 nm, emission wavelength=520 nm). Data were analyzed by a standard 4 parameter fit to determine IC50 values.
Regarding `CNC(=O)C(=O)[C@H](CCC(C)(F)F)NC(=O)c1cc(Cl)cnc1NC(=O)C1(C(F)(F)F)CC1` [Example 36, 5-chloro-N-[(1S)-4,4-difluoro-1-[2-(methylamino)-2-oxo-acetyl]pentyl]-2-[[1-(trifluoromethyl)cyclopropane-carbonyl]amino]pyridine-3-carboxamide], the IC50 is 24.4 nM.
For `CNC(=O)C(=O)[C@H](CCC(C)(F)F)NC(=O)c1cc(Cl)cnc1NC(=O)c1cccc(F)c1` [Example 24, 5-chloro-N-[(1S)-4,4-difluoro-1-[2-(methylamino)-2-oxo-acetyl]pentyl]-2-[(3-fluorobenzoyl)amino]pyridine-3-carboxamide], the IC50 was found to be 14 nM.
Under `CNC(=O)C(=O)[C@H](CCC(C)(F)F)NC(=O)c1cc(Cl)cnc1NC(=O)C12CC(C(F)(F)F)(C1)C2` [Example 2, (S)-5-chloro-N-(6,6-difluoro-1-(methylamino)-1,2-dioxoheptan-3-yl)-2-(3-(trifluoromethyl)bicyclo[1.1.1]pentane-1-carboxamido)nicotinamide] stands 11.6 nM; under `CC(F)(F)CC[C@H](NC(=O)c1cc(Cl)ccc1NC(=O)c1cccc(C(F)(F)F)c1)C(=O)C(=O)NC1CC1` [Example 12, 5-chloro-N-[(1S)-1-[2-(cyclopropylamino)-2-oxo-acetyl]-4.4-difluoro-pentyl]-2-[[3-(trifluoromethyl)benzoyl]amino]benzamide], 7.9 nM.

These data come from patent publication US20260209180A1, “PROTEASE INHIBITORS FOR TREATING OR PREVENTING CORONAVIRUS INFECTION” (Merck Sharp & Dohme LLC, priority 2023, published 2026).
